According to US20160159774A1 (Celgene Avilomics Research, Inc., priority 2014, published 2016):

Tests used:
activated BTK enzyme = target: T1, activated BTK enzyme (Homo sapiens, UniProt Q06187); test: Omnia assay for potency assessment against BTK; format: biochemical; conditions: BTK inhibition assay; [BTK]=5 nM, [ATP]=40 μM, [Y5-Sox]=10 μM
T1 construct: purchased Life Technologies PV3363
Procedure, shortened: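 Activated BTK (5 nM) was pre-incubated 30 min at room temperature with compound, then reacted with 40 μM ATP (KMapp ~36 μM) and 10 μM Y5-Sox peptide in Tris pH 7.5/MgCl2/EGTA/DTT buffer. Sox fluorescence (ex360/em485) followed for 60 min; IC50 from initial velocities (~0–30 min) by variable-slope fit.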

[1] = target: T2, BTK in Ramos human Burkitt lymphoma cells (Homo sapiens, UniProt Q06187); test: BTK Ramos cellular assay (BTK occupancy); format: cell-based; conditions: concentration producing 50% occupancy of BTK, 1 hour incubation with compound
T2 construct: Compounds of this invention were assayed in Ramos human Burkitt lymphoma cells; endogenous in cells; host or cells: Ramos human Burkitt lymphoma cells
Procedure, shortened: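 Ramos cells at 2×10^6 cells/mL in serum-free medium treated 1 hour with compound (500 to 0.7 nM final), then lysed. Free BTK captured by biotinylated covalent probe (1 μM final, 1 h) on streptavidin plate, detected by anti-Btk ELISA at OD 450 nm against recombinant Btk standard, normalized to total protein; value is concentration giving 50% occupancy.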

T1 sequence (Q06187 whole entry): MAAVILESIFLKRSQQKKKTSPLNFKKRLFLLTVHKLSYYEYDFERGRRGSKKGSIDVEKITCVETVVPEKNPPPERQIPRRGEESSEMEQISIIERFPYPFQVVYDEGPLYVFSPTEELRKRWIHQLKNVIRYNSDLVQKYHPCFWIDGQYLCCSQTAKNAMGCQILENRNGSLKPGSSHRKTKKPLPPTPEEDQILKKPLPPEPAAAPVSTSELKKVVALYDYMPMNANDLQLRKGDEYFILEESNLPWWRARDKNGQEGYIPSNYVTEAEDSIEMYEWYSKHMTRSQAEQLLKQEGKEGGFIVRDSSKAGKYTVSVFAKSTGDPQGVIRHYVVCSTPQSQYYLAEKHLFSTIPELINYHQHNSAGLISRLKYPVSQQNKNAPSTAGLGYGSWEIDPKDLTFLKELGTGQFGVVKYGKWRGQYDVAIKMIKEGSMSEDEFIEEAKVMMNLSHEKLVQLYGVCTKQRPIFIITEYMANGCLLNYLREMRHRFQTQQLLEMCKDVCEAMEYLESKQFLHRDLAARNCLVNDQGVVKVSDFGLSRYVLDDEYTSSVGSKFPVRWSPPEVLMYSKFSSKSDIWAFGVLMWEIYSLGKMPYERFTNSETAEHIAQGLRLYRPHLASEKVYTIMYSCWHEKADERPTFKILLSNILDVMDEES
T2 sequence (Q06187 whole entry): as above

IC50 (activated BTK enzyme) [nM] | EC50 [1] [nM] | melting point [°C] | SMILES
< 10 | 10 to 100 | 118 to 121 | C=CC(=O)N1CCC[C@@H](Nc2nc(Nc3ccc4c(c3)CN(C(C)(C)C)CC4)ncc2F)C1 [Compound I-49, (R)-1-(3-(2-(2-tert-Butyl-1,2,3,4-tetrahydroisoquinolin-7-ylamino)-5-fluoropyrimidin-4-ylamino)piperidin-1-yl)prop-2-en-1-one]
< 10 | 10 to 100 | 103 to 105 | C=CC(=O)N1CCC[C@@H](Nc2nc(Nc3ccc4c(c3)CN(CC3COC3)CCC4)ncc2F)C1 [Compound I-56, (R)-1-(3-(5-Fluoro-2-(2-(oxetan-3-ylmethyl)-2,3,4,5-tetrahydro-1H-benzo[c]azepin-8-ylamino)pyrimidin-4-ylamino)piperidin-1-yl)prop-2-en-1-one]
< 10 | < 10 | 102 to 104 | C=CC(=O)N1CCC[C@@H](Nc2nc(Nc3ccc4c(c3)CCN(C)CC4)ncc2F)C1 [Compound I-58, (R)-1-(3-(5-Fluoro-2-(3-methyl-2,3,4,5-tetrahydro-1H-benzo[d]azepin-7-ylamino)pyrimidin-4-ylamino)piperidin-1-yl)prop-2-en-1-one]
< 10 | < 10 | 104 to 106 | C=CC(=O)N1CCC[C@@H](Nc2nc(Nc3ccc4c(c3)CCN(CC3COC3)CC4)ncc2F)C1 [Compound I-59, (R)-1-(3-(5-Fluoro-2-(3-(oxetan-3-ylmethyl)-2,3,4,5-tetrahydro-1H-benzo[d]azepin-7-ylamino)pyrimidin-4-ylamino)piperidin-1-yl)prop-2-en-1-one]
< 10 | 10 to 100 | 120 to 122 | C=CC(=O)N1CCC[C@@H](Nc2nc(Nc3ccc4c(c3)CN(C)C4=O)ncc2F)C1 [Compound I-61, (R)-5-(4-(1-Acryloylpiperidin-3-ylamino)-5-fluoropyrimidin-2-ylamino)-2-methylisoindolin-1-one]
